According to patent publication US7598389B2, “Silylated carboxamides” (Bayer Cropscience AG, priority 2003, dated 2009):

test system: not listed separately; assay: log P determination by HPLC on reverse-phase column (EEC Directive 79/831 Annex V.A8); type: physicochemical; settings: Table 1, C 18 reverse-phase column, 43° C., acidic range (pH 2.3)
Protocol: The given log P values were determined in accordance with EEC Directive 79/831 Annex V.A8 by HPLC (High Performance Liquid Chromatography) on a reverse-phase column (C 18). Temperature: 43° C.
Mobile phases for the determination in the acidic range (pH 2.3): 0.1% aqueous phosphoric acid, acetonitrile; linear gradient from 10% acetonitrile to 90% acetonitrile.
Calibration was carried out using unbranched alkan-2-ones (3 to 16 carbon atoms) with known log P values (determination of the log P values by the retention times using linear interpolation between two successive alkanones).

SMILES	logP
C[Si](C)(C)C#Cc1ccccc1NC(=O)c1ccccc1I [Example 19]	4.97
C[Si](C)(C)C#Cc1ccccc1NC(=O)c1ccccc1C(F)(F)F [Example 18]	4.78
Cc1occc1C(=O)Nc1ccccc1CC[Si](C)(C)C [Example 16]	4.03
C[Si](C)(C)CCc1cc(F)ccc1NC(=O)c1sccc1I [Example 25]	4.79
CC(C[Si](C)(C)C)c1ccccc1NC(=O)c1cn(C)nc1I (racemic) [Example 15]	3.94
CC(C[Si](C)(C)C)c1cc(F)ccc1NC(=O)c1ccccc1I (racemic) [Example 23]	4.64
CC(C[Si](C)(C)C)c1cc(F)ccc1NC(=O)c1ccccc1C(F)(F)F (racemic) [Example 22]	4.61
C[Si](C)(C)CCc1cc(F)ccc1NC(=O)c1ccccc1C(F)(F)F [Example 26]	4.39
CC(C[Si](C)(C)C)c1ccccc1NC(=O)c1occc1I (racemic) [Example 11]	4.73
Cn1nc(C(F)(F)F)c(C(=O)Nc2ccccc2CC[Si](C)(C)C)c1F [Example 10]	4.19
CC(C[Si](C)(C)C)c1ccccc1NC(=O)c1sccc1I (racemic) [Example 12]	5.05
C[Si](C)(C)C#Cc1ccccc1NC(=O)c1ccccc1Cl [Example 20]	4.96
C[Si](C)(C)CCc1ccccc1NC(=O)c1ccccc1Cl [Example 5]	4.29
CC(C[Si](C)(C)C)c1ccccc1NC(=O)c1ccccc1Br (racemic) [Example 7]	4.58
CC(C[Si](C)(C)C)c1ccccc1NC(=O)c1ccccc1C(F)(F)F (racemic) [Example 3]	4.63
C[Si](C)(C)CCc1ccccc1NC(=O)c1sccc1I [Example 24]	4.85
CC(C[Si](C)(C)C)c1ccccc1NC(=O)c1ccccc1I (racemic) [Example 2]	4.67
C[Si](C)(C)CCc1ccccc1NC(=O)c1ccccc1C(F)(F)F [Example 6]	4.37
Cn1cc(C(=O)Nc2ccccc2CC[Si](C)(C)C)c(C(Cl)Cl)n1 [Example 9]	3.95
C[Si](C)(C)CCc1ccccc1NC(=O)c1ccccc1I [Example 4]	4.40
Cn1cc(C(=O)Nc2ccccc2CC[Si](C)(C)C)c(Cl)n1 [Example 14]	3.89
Cn1cc(C(=O)Nc2ccccc2CC[Si](C)(C)C)c(I)n1 [Example 8]	3.68
Cc1occc1C(=O)Nc1ccccc1C(C)C[Si](C)(C)C (racemic) [Example 17]	4.33
C[Si](C)(C)C#Cc1ccccc1NC(=O)c1ccccc1Br [Example 21]	4.93

same assay, conditions: pH 2.3, C 18 reverse-phase column, 43° C.

SMILES	chromatographic logP
C[Si](C)(C)CCc1ccccc1N [Example (III-2), 2-(2-trimethylsilylethyl)phenylamine]	2.58
C[Si](C)(C)CCc1ccccc1NC(=O)c1ccccc1Br [Example 1, 2-bromo-N-[2-(2-trimethylsilyl-ethyl)phenyl]benzamide]	4.32
CC(C[Si](C)(C)C)c1ccccc1N (stereo not shown) [Example (III-1), 2-(1-methyl-2-trimethylsilylethyl)phenylamine]	3.05
C[Si](C)(C)C#Cc1ccccc1[N+](=O)[O-] [trimethyl-(2-nitrophenyl-ethynyl)silane]	4.12

test system: Puccinia recondite; assay: Puccinia test (wheat)/protective; type: in vivo; settings: 240 h, wheat plants, protective, application rate 500 g/ha, evaluation ten days after inoculation, read-out: Efficacy in %
Protocol: Puccinia Test (Wheat)/Protective
To produce a suitable preparation of active compound, 1 part by weight of active compound is mixed with the stated amount of solvent and emulsifier, and the concentrate is diluted with water to the desired concentration.
To test for protective activity, young plants are sprayed with the preparation of active compound at the stated application rate. After the spray coating has dried on, the plants are sprayed with a conidia suspension of Puccinia recondite. The plants remain in an incubation cabin at 20° C. and 100% relative atmospheric humidity for 48 hours.
The plants are then placed in a greenhouse at a temperature of about 20° C. and a relative atmospheric humidity of 80% to promote the development of rust pustules.
Evaluation is carried out ten days after the inoculation. 0% means an efficacy which corresponds to that of the control, whereas an efficacy of 100% means that no infection is observed.

SMILES	pest or weed control at 500 g/ha [%]
CC(C[Si](C)(C)C)c1ccccc1NC(=O)c1ccccc1Br (stereo not shown)	100
CC(C[Si](C)(C)C)c1ccccc1NC(=O)c1cn(C)nc1I (stereo not shown) [drawing 80]	100
CC(C[Si](C)(C)C)c1ccccc1NC(=O)c1occc1I (stereo not shown) [drawing 77]	100
C[Si](C)(C)CCc1ccccc1NC(=O)c1sccc1I [drawing 75]	100
CC(C[Si](C)(C)C)c1ccccc1NC(=O)c1sccc1I (stereo not shown) [drawing 78]	100
Cc1occc1C(=O)Nc1ccccc1CC[Si](C)(C)C [drawing 73]	100
C[Si](C)(C)CCc1ccccc1NC(=O)c1ccccc1Br [drawing 71]	100
C[Si](C)(C)CCc1ccccc1NC(=O)c1ccccc1I [drawing 70]	100
Cn1cc(C(=O)Nc2ccccc2CC[Si](C)(C)C)c(I)n1 [drawing 72]	100
C[Si](C)(C)CCc1cc(F)ccc1NC(=O)c1sccc1I [drawing 76]	100
CC(C[Si](C)(C)C)c1ccccc1NC(=O)c1ccccc1I (stereo not shown) [drawing 69]	100
Cc1ccsc1C(=O)Nc1ccccc1CC[Si](C)(C)C [drawing 74]	100
C[Si](C)(C)CCc1ccccc1NC(=O)c1ccccc1C(F)(F)F [drawing 68]	93

test system: Sphaerotheca fuliginea; assay: Sphaerotheca test (cucumber)/protective; type: in vivo; settings: cucumber plants, protective; application rate 750 g/ha; evaluation 7 days after inoculation
Protocol: Sphaerotheca Test (Cucumber)/Protective
(§1) To produce a suitable preparation of active compound, 1 part by weight of active compound is mixed with the stated amounts of solvent and emulsifier, and the concentrate is diluted with water to the desired concentration.
To test for protective activity, young cucumber plants are sprayed with the preparation of active compound at the stated application rate. One day after the treatment, the plants are inoculated with a spore suspension of Sphaerotheca fuliginea. The plants are then placed in a greenhouse at 70% relative atmospheric humidity and a temperature of 23° C.
Evaluation is carried out 7 days after the inoculation. 0% means an efficacy which corresponds to that of the control, whereas an efficacy of 100% means that no infection is observed.

SMILES	Efficacy in % [%]
CC(C[Si](C)(C)C)c1ccccc1NC(=O)c1ccccc1C(F)(F)F (stereo not shown) [drawing 65]	100
CC(C[Si](C)(C)C)c1ccccc1NC(=O)c1ccccc1I (stereo not shown) [drawing 66]	100
C[Si](C)(C)CCc1ccccc1NC(=O)c1ccccc1Br [drawing 67]	100

test system: Venturia inaequalis; assay: Venturia test (apple)/protective; type: in vivo; settings: 240 h, apple plants, protective, application rate 100 g/ha, evaluation 10 days after inoculation, read-out: Efficacy in %
Protocol: Venturia Test (Apple)/Protective
as §1
To test for protective activity, young plants are sprayed with the preparation of active compound at the stated application rate. After the spray coating has dried on, the plants are inoculated with an aqueous conidia suspension of the apple pathogen Venturia inaequalis and then remain in an incubation cabin at about 20° C. and 100% relative atmospheric humidity for one day.
The plants are then placed in a greenhouse at about 21° C. and a relative atmospheric humidity of about 90%.
Evaluation is carried out 10 days after the inoculation. 0% means an efficacy which corresponds to that of the control, whereas an efficacy of 100% means that no infection is observed.

SMILES	pest or weed control at 100 g/ha [%]
CC(C[Si](C)(C)C)c1ccccc1NC(=O)c1occc1I (stereo not shown) [drawing 62]	100
C[Si](C)(C)CCc1cc(F)ccc1NC(=O)c1sccc1I [drawing 61]	100
C[Si](C)(C)CCc1ccccc1NC(=O)c1ccccc1Br [drawing 57]	87
Cc1ccsc1C(=O)Nc1ccccc1CC[Si](C)(C)C [drawing 60]	100
C[Si](C)(C)CCc1ccccc1NC(=O)c1ccccc1C(F)(F)F [drawing 56]	84
CC(C[Si](C)(C)C)c1ccccc1NC(=O)c1ccccc1I (stereo not shown) [drawing 55]	100
CC(C[Si](C)(C)C)c1ccccc1NC(=O)c1ccccc1C(F)(F)F (stereo not shown) [drawing 54]	99
CC(C[Si](C)(C)C)c1ccccc1NC(=O)c1cn(C)nc1I (stereo not shown) [drawing 64]	99
Cn1nc(C(F)(F)F)c(C(=O)Nc2ccccc2CC[Si](C)(C)C)c1F [drawing 58]	100
CC(C[Si](C)(C)C)c1ccccc1NC(=O)c1sccc1I (stereo not shown) [drawing 63]	100
Cn1cc(C(=O)Nc2ccccc2CC[Si](C)(C)C)c(I)n1 [drawing 59]	100
